From patent publication US10760110B2, “Antibiotic testing and screening system” (priority 2017, dated 2020)
Values after ≈ are worked out from the molar mass of the structure shown. Like-named read-outs stand apart in the source and are kept apart here.

Assays:
[1] = system: K. pneumoniae NVT1001 ΔramRΔompK35/36 mutant and its revertants; experiment: Etest MIC, ΔramRΔompK35/36 mutant and its revertants (Table 7); assay type: cell-based; settings: Klebsiella pneumoniae
[2] = system: K. pneumoniae NVT1001 and its ΔompK35/36 and/or ΔramR mutants; experiment: Etest MIC, OmpK35/36 loss and AcrAB-TolC overexpression (ΔramR) strains (Table 6); assay type: cell-based, Klebsiella pneumoniae; settings: Klebsiella pneumoniae
Outline: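 MICs were read by Etest strip following the manufacturer's instructions, and values falling between standard two-fold dilutions were rounded up to the next two-fold step. Ceftazidime and cefotaxime were also tested by CLSI broth microdilution and interpreted against CLSI 2017 breakpoints; cephalothin used CLSI 2015 and moxifloxacin EUCAST 2017.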

[3] = system: K. pneumoniae NVT1001 strains with carbapenemase plasmids; experiment: Etest MIC of β-lactams, OmpK35/36 loss, ΔramR and/or carbapenemase (Table 9); assay type: cell-based, Klebsiella pneumoniae; settings: for MIC: Klebsiella pneumoniae
Experimental: DNA fragments of the resistance genes along with their flanking regions were amplified from clinical plasmids via PCR with specific primer pairs. The resulting PCR fragments were digested and then cloned into the plasmid pACYC177 or pACYC184. The resulting plasmids were then transformed into K. pneumoniae strain NVT1001 via electroporation. The recombinant bacteria were plated onto LB agar plates containing kanamycin (50 mg/L) or chloramphenicol (50 mg/L), and the presence of the cloned gene was confirmed via PCR and DNA sequencing.
The MICs of antibiotics were determined using the Etest (Biodisk AB, Sweden) according to the manufacturer's instructions. The MICs from the Etest, which fall between standard two-fold dilutions, were rounded up to the next highest two-fold value. The MICs of ceftazidime and cefotaxime against K. pneumoniae NVT1001 harbouring the pACYC177 plasmid with blaOXA-48 were further determined using a broth microdilution test according to the recommendations of the CLSI,^25 and the results were interpreted according to the breakpoints established by the CLSI in 2017.^25 Meanwhile, due to the lack of CLSI breakpoints in 2016 and 2017, the results for cephalothin were interpreted according to the breakpoints established by the CLSI in 2015,^26 and the results for moxifloxacin were interpreted according to the breakpoints established by the EUCAST in 2017.^27

C[C@H]1[C@H](NC(=O)/C(=N\OC(C)(C)C(=O)O)c2csc(N)n2)C(=O)N1S(=O)(=O)O [Aztreonam] gave an MIC ([1]; ΔramRΔompK35/36::ompK35/36 revertant) of 0.5 µg/mL, an MIC ([1]; ΔramRΔompK35/36::ompK35 revertant) of 1 µg/mL and an MIC ([1]; ΔramRΔompK35/36::ompK36 revertant) of 0.5 µg/mL. It also gave an MIC ([1]; ΔramRΔompK35/36::ramR revertant) of 0.5 µg/mL, an MIC ([1]; ΔramRΔompK35/36::ramR::ompK35/36 revertant) of 0.03 µg/mL and an MIC ([1]; ΔramRΔompK35/36::ramR::ompK35 revertant) of 0.06 µg/mL. It also gave an MIC ([1]; ΔramRΔompK35/36::ramR::ompK36 revertant) of 0.25 µg/mL, an MIC ([1]; ΔramRΔompK35/36 mutant) of 1 µg/mL and an MIC ([2]; WT, NVT1001, read-out: MIC) of 0.03 µg/mL (≈ 0.0689 µM). It also gave an MIC ([2]; Δ35, ΔompK35 mutant) of 0.25 µg/mL (≈ 0.574 µM), an MIC ([2]; Δ35/36, ΔompK35/36 mutant) of 0.5 µg/mL (≈ 1.15 µM) and an MIC ([2]; Δ36, ΔompK36 mutant) of 0.06 µg/mL (≈ 0.138 µM). The MIC ([2]; ΔramR mutant) was 0.5 µg/mL (≈ 1.15 µM), the MIC ([2]; ΔramRΔ35, ΔramRΔompK35 mutant) was 0.5 µg/mL (≈ 1.15 µM) and the MIC ([2]; ΔramRΔ35/36, ΔramRΔompK35/36 mutant) was 1 µg/mL (≈ 2.3 µM). For the same molecule, the MIC ([2]; ΔramRΔ36, ΔramRΔompK36 mutant) was 1 µg/mL (≈ 2.3 µM), the susceptibility category ([3]; IMP-8, NDM-1, VIM-1 and OXA-48 strains, with or without OmpK35/36 loss and/or ΔramR) was “susceptible” and the MIC ([3]; IMP-8 on pACYC177, WT (NVT1001), read-out: MIC) was 0.06 µg/mL. For the same molecule, the MIC ([3]; IMP-8 on pACYC177, Δ35 (ΔompK35 mutant)) was 0.25 µg/mL, the MIC ([3]; IMP-8 on pACYC177, Δ35/36 (ΔompK35/36 mutant)) was 0.5 µg/mL and the MIC ([3]; IMP-8 on pACYC177, Δ36 (ΔompK36 mutant)) was 0.06 µg/mL. For the same molecule, the MIC ([3]; IMP-8 on pACYC177, ΔramR mutant) was 0.5 µg/mL, the MIC ([3]; IMP-8 on pACYC177, ΔramRΔ35 (ΔramRΔompK35 mutant)) was 0.5 µg/mL and the MIC ([3]; IMP-8 on pACYC177, ΔramRΔ35/36 (ΔramRΔompK35/36 mutant)) was 0.5 µg/mL. The MIC ([3]; IMP-8 on pACYC177, ΔramRΔ36 (ΔramRΔompK36 mutant)) was 0.5 µg/mL, the MIC ([3]; KPC-2 on pACYC177, WT (NVT1001), read-out: MIC) was over 256 µg/mL and the MIC ([3]; KPC-2 on pACYC177, Δ35 (ΔompK35 mutant)) was over 256 µg/mL. The MIC ([3]; KPC-2 on pACYC177, Δ35/36 (ΔompK35/36 mutant)) was over 256 µg/mL, the MIC ([3]; KPC-2 on pACYC177, Δ36 (ΔompK36 mutant)) was 256 µg/mL and the MIC ([3]; KPC-2 on pACYC177, ΔramR mutant) was over 256 µg/mL. It also gave an MIC ([3]; KPC-2 on pACYC177, ΔramRΔ35 (ΔramRΔompK35 mutant)) of over 256 µg/mL, an MIC ([3]; KPC-2 on pACYC177, ΔramRΔ35/36 (ΔramRΔompK35/36 mutant)) of over 256 µg/mL and an MIC ([3]; KPC-2 on pACYC177, ΔramRΔ36 (ΔramRΔompK36 mutant)) of over 256 µg/mL. The MIC ([3]; KPC-3 on pACYC177, WT (NVT1001), read-out: MIC) was over 256 µg/mL, the MIC ([3]; KPC-3 on pACYC177, Δ35 (ΔompK35 mutant)) was over 256 µg/mL and the MIC ([3]; KPC-3 on pACYC177, Δ35/36 (ΔompK35/36 mutant)) was over 256 µg/mL. The MIC ([3]; KPC-3 on pACYC177, Δ36 (ΔompK36 mutant)) was over 256 µg/mL, the MIC ([3]; KPC-3 on pACYC177, ΔramR mutant) was over 256 µg/mL and the MIC ([3]; KPC-3 on pACYC177, ΔramRΔ35 (ΔramRΔompK35 mutant)) was over 256 µg/mL. For the same molecule, the MIC ([3]; KPC-3 on pACYC177, ΔramRΔ35/36 (ΔramRΔompK35/36 mutant)) was over 256 µg/mL, the MIC ([3]; KPC-3 on pACYC177, ΔramRΔ36 (ΔramRΔompK36 mutant)) was over 256 µg/mL and the MIC ([3]; NDM-1 on pACYC177, WT (NVT1001), read-out: MIC) was 0.06 µg/mL. For the same molecule, the MIC ([3]; NDM-1 on pACYC177, Δ35 (ΔompK35 mutant)) was 0.25 µg/mL, the MIC ([3]; NDM-1 on pACYC177, Δ35/36 (ΔompK35/36 mutant)) was 0.5 µg/mL and the MIC ([3]; NDM-1 on pACYC177, Δ36 (ΔompK36 mutant)) was 0.06 µg/mL. It also gave an MIC ([3]; NDM-1 on pACYC177, ΔramR mutant) of 0.5 µg/mL, an MIC ([3]; NDM-1 on pACYC177, ΔramRΔ35 (ΔramRΔompK35 mutant)) of 0.5 µg/mL and an MIC ([3]; NDM-1 on pACYC177, ΔramRΔ35/36 (ΔramRΔompK35/36 mutant)) of 0.5 µg/mL. The MIC ([3]; NDM-1 on pACYC177, ΔramRΔ36 (ΔramRΔompK36 mutant)) was 0.5 µg/mL, the MIC ([3]; OXA-48 on pACYC177, WT (NVT1001), read-out: MIC) was 0.06 µg/mL and the MIC ([3]; OXA-48 on pACYC177, Δ35 (ΔompK35 mutant)) was 0.25 µg/mL. It also gave an MIC ([3]; OXA-48 on pACYC177, Δ35/36 (ΔompK35/36 mutant)) of 0.5 µg/mL, an MIC ([3]; OXA-48 on pACYC177, Δ36 (ΔompK36 mutant)) of 0.125 µg/mL and an MIC ([3]; OXA-48 on pACYC177, ΔramR mutant) of 0.5 µg/mL. For the same molecule, the MIC ([3]; OXA-48 on pACYC177, ΔramRΔ35 (ΔramRΔompK35 mutant)) was 0.5 µg/mL, the MIC ([3]; OXA-48 on pACYC177, ΔramRΔ35/36 (ΔramRΔompK35/36 mutant)) was 0.5 µg/mL and the MIC ([3]; OXA-48 on pACYC177, ΔramRΔ36 (ΔramRΔompK36 mutant)) was 0.5 µg/mL. For the same molecule, the MIC ([3]; VIM-1 on pACYC177, WT (NVT1001), read-out: MIC) was 0.06 µg/mL, the MIC ([3]; VIM-1 on pACYC177, Δ35 (ΔompK35 mutant)) was 0.25 µg/mL and the MIC ([3]; VIM-1 on pACYC177, Δ35/36 (ΔompK35/36 mutant)) was 0.5 µg/mL. It also gave an MIC ([3]; VIM-1 on pACYC177, Δ36 (ΔompK36 mutant)) of 0.06 µg/mL, an MIC ([3]; VIM-1 on pACYC177, ΔramR mutant) of 0.5 µg/mL and an MIC ([3]; VIM-1 on pACYC177, ΔramRΔ35 (ΔramRΔompK35 mutant)) of 0.5 µg/mL. It also gave an MIC ([3]; VIM-1 on pACYC177, ΔramRΔ35/36 (ΔramRΔompK35/36 mutant)) of 1 µg/mL, an MIC ([3]; VIM-1 on pACYC177, ΔramRΔ36 (ΔramRΔompK36 mutant)) of 1 µg/mL and an MIC ([3]; no supplemental plasmid, WT (NVT1001), read-out: MIC) of 0.03 µg/mL. For the same molecule, the MIC ([3]; no supplemental plasmid, Δ35 (ΔompK35 mutant)) was 0.25 µg/mL, the MIC ([3]; no supplemental plasmid, Δ35/36 (ΔompK35/36 mutant)) was 0.5 µg/mL and the MIC ([3]; no supplemental plasmid, Δ36 (ΔompK36 mutant)) was 0.06 µg/mL. It also gave an MIC ([3]; no supplemental plasmid, ΔramR mutant) of 0.5 µg/mL, an MIC ([3]; no supplemental plasmid, ΔramRΔ35 (ΔramRΔompK35 mutant)) of 0.5 µg/mL and an MIC ([3]; no supplemental plasmid, ΔramRΔ35/36 (ΔramRΔompK35/36 mutant)) of 1 µg/mL. The MIC ([3]; no supplemental plasmid, ΔramRΔ36 (ΔramRΔompK36 mutant)) was 1 µg/mL.
